Converted amounts (≈) assume the structure as drawn. One block for each compound: values may come before it. The source made the active and inactive calls. The calls are words filed in the database; no cut-off is given here.
Key:
[1] = Octanol-buffer partition co-efficient, log D of the compound at pH 7.4 by shake-flask method; assay type: physicochemical
[2] = Thermodynamic solubility of the compound in aqueous phosphate buffer at pH 7.4 at 25 degC after 24 hrs by LC-UV method; assay type: physicochemical; conditions: read-out: Therm_solubility
[3] = Oral bioavailability in Han Wistar rat plasma at 10 umol/kg; assay type: ADME, organism-based
COLO 205 [4] = experiment: Potentiation of gemcitabine-induced antitumor activity against human COLO205 cells xenografted in nude mouse assessed as tumor growth inhibition at 50 mg/kg, po for 1 week followed by drug cessation measured after 14 days; assay type: functional, organism-based
[5] = Fraction unbound in dog plasma by equilibrium dialysis; assay type: ADME, cell-free, Canis lupus familiaris
[6] = Oral bioavailability in Beagle dog at 10 umol/kg; assay type: ADME, organism-based, Canis lupus familiaris; conditions: in vivo
Mus musculus = experiment: T>IC50 for IGF1R in nude mouse at 50 mg/kg, po
COLO 205 [7] = experiment: Potentiation of gemcitabine-induced antitumor activity against human COLO205 cells xenografted in nude mouse assessed as tumor growth inhibition at 25 mg/kg, po for 2 weeks; assay type: functional, organism-based
[8] = Intrinsic clearance in human hepatocytes assessed per 10^6 cells; assay type: ADME, cell-based, Hepatocyte; conditions: read-out: CLH
[9] = Fraction unbound in rat plasma by equilibrium dialysis; assay type: ADME, cell-free
[10] = Volume of distribution at steady state in Beagle dog at 1 or 4 umol/kg, iv or 10 umol/kg, po; assay type: ADME, organism-based, Canis lupus familiaris; conditions: in vivo, read-out: Vdss
[11] = Intrinsic clearance in rat hepatocytes assessed per 10^6 cells; assay type: ADME, cell-based, Hepatocyte; conditions: read-out: CLH
[12] = Clearance in Han Wistar rat plasma at 2 or 4 umol/kg, iv or 10 umol/kg, po; assay type: ADME, organism-based
COLO 205 [13] = experiment: Antitumor activity against human COLO205 cells xenografted in nude mouse assessed as tumor growth inhibition at 50 mg/kg, po for 2 days per week; assay type: functional, organism-based
[14] = Intrinsic clearance in dog hepatocytes assessed per 10^6 cells; assay type: ADME, cell-based, Canis lupus familiaris, Hepatocyte; conditions: read-out: CLH
P12 [15] = experiment: Inhibition of IGF1R phosphorylation in mouse P12 cells allografted in po dosed nu/nu mouse administered as single dose measured after 1 to 2 hrs post dosing; assay type: functional, organism-based
[16] = Volume of distribution at steady state in Han Wistar rat plasma at 2 or 4 umol/kg, iv or 10 umol/kg, po; assay type: ADME, organism-based; conditions: read-out: Vdss
[17] = AUC in nude mouse at 50 mg/kg, po; assay type: ADME, organism-based; conditions: in vivo
COLO 205 [18] = experiment: Potentiation of gemcitabine-induced antitumor activity against human COLO205 cells xenografted in nude mouse assessed as increase in stasis at 50 mg/kg, po for 1 week; assay type: functional, organism-based
[19] = Clearance in Beagle dog plasma at 1 or 4 umol/kg, iv or 10 umol/kg, po; assay type: ADME, organism-based, Canis lupus familiaris
P12 [20] = experiment: Antitumor activity against mouse P12 cells allografted in nu/nu mouse assessed as tumor growth inhibition at 12.5 to 25 mg/kg, po qd for 7 days; assay type: functional, organism-based
[21] = Cmax in nude mouse at 50 mg/kg, po; assay type: ADME, organism-based; parameters: dose 50 mg/kg, route oral; conditions: in vivo
[22] = molecular target: Cyclin-dependent kinase 8 (Homo sapiens, UniProt P49336)
[23] = molecular target: Cyclin-dependent kinase 7 (Homo sapiens, UniProt P50613)
[24] = molecular target: Cyclin-dependent kinase 1 (Homo sapiens, UniProt P06493)
[25] = molecular target: Cyclin-dependent kinase 2 (Homo sapiens, UniProt P24941)
[26] = molecular target: Cyclin-dependent kinase 9 (Homo sapiens, UniProt P50750)
Sequence of Cyclin-dependent kinase 9 (P50750 whole entry): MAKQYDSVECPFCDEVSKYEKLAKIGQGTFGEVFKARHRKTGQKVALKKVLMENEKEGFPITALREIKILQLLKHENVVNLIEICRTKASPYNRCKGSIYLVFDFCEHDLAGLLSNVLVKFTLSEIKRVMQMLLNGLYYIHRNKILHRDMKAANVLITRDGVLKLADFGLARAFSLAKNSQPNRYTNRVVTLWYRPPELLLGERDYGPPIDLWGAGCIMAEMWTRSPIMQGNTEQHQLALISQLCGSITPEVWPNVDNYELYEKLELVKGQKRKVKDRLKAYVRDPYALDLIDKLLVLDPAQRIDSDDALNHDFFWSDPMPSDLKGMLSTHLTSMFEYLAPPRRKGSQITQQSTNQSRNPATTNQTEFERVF

Sequence of Cyclin-dependent kinase 7 (P50613 whole entry): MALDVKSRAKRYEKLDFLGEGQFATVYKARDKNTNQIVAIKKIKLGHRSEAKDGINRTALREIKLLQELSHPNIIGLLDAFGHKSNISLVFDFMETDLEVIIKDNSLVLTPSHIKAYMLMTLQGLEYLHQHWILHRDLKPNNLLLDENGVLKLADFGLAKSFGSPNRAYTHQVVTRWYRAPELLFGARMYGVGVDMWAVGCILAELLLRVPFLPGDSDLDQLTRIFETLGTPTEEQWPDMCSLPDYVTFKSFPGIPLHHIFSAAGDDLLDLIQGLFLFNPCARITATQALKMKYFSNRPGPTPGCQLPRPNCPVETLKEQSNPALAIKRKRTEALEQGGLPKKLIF
Sequence of Cyclin-dependent kinase 8 (P49336 whole entry): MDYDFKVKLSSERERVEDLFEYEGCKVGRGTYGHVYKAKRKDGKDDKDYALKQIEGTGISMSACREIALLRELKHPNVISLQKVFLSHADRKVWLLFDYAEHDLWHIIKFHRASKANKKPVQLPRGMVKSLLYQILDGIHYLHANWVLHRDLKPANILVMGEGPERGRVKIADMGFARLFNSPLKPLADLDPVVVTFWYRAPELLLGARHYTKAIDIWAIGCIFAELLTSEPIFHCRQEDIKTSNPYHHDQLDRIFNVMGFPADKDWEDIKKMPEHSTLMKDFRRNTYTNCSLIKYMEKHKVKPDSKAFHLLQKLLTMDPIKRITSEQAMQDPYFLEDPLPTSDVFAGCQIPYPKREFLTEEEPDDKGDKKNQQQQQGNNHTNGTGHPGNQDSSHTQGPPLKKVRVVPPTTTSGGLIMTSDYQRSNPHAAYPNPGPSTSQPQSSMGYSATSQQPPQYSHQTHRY
Sequence of Cyclin-dependent kinase 1 (P06493 whole entry): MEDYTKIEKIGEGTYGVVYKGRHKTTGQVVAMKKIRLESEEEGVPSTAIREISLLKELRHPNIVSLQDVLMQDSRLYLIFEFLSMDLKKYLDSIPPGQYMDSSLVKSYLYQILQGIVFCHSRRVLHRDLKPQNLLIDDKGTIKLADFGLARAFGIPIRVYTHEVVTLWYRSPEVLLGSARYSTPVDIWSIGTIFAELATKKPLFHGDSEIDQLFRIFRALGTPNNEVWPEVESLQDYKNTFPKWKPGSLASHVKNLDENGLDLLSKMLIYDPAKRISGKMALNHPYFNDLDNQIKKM

SMILES: CC(=O)N1CCC(n2cc(Nc3ncc(Cl)c(-c4cnc5ccccn45)n3)cn2)CC1
- IC50 [22]: 42 nM
- IC50 [23]: 21 nM
- IC50 [24]: 66 nM
- IC50 [25]: 25 nM
- logD [1]: 3.1
- IC50 [26]: 37 nM

SMILES: COc1nn(C2CCN(C(C)=O)CC2)cc1Nc1ncc(Cl)c(-c2cnn3ccccc23)n1
- logD [1]: 3.3

SMILES: COc1nn(C2CCN(C(C)=O)CC2)cc1Nc1ncc(Cl)c(-c2cnc3ccccn23)n1
- logD [1]: 2.9

SMILES: CCc1nn(C2CCN(C(C)=O)CC2)cc1Nc1ncc(Cl)c(-c2cnn3ccccc23)n1
- logD [1]: 3.4

SMILES: CCc1c(Nc2ncc(Cl)c(-c3cnn4ccccc34)n2)cnn1C1CCN(C(C)=O)CC1
- logD [1]: 3.3

SMILES: CC(=O)N1CCC(n2ncc(Nc3ncc(Cl)c(-c4cnc5ccccn45)n3)c2C)CC1
- logD [1]: 2.7

SMILES: Cc1c(Nc2ncc(Cl)c(-c3cnc4ccccn34)n2)cnn1C1CCNCC1
- logD [1]: 0.9

SMILES: Cc1nn(C2CCNCC2)c(C)c1Nc1ncc(Cl)c(-c2cnn3ccccc23)n1
- logD [1]: 1.2
- solubility thermodynamic at 24 h [2]: 91 µM (≈ 38.5 µg/mL)

More lines, main results first:

- logD [1]: 1.3
- solubility thermodynamic at 24 h [2]: 260 µM (≈ 125 µg/mL)
SMILES: Cc1nn(C2CCN(C(=O)CN)CC2)c(C)c1Nc1ncc(Cl)c(-c2cnn3ccccc23)n1

- bioavailability [3]: 58%
- fraction unbound [5]: 0.12
- bioavailability [6]: 38%
- hepatocyte CLint [8]: < 3 µL/min/1e6 cells
- fraction unbound [9]: 0.18
- Vd [10]: 1.3 L/kg
- hepatocyte CLint [11]: 21 µL/min/1e6 cells
- clearance [12]: 15 mL/min/kg
- hepatocyte CLint [14]: 8.1 µL/min/1e6 cells
- Vd [16]: 0.8 L/kg
- AUC [17]: 30 µM·h
- clearance [19]: 7 mL/min/kg
- logD [1]: 2.9
- solubility thermodynamic at 24 h [2]: 17 µM (≈ 8.41 µg/mL)
- Cmax [21]: 12 µM
SMILES: Cc1nn(C2CCN(C(=O)[C@@H](C)O)CC2)c(C)c1Nc1ncc(Cl)c(-c2cnn3ccccc23)n1
- TGI (COLO 205 [4]): Active
- Time (Mus musculus): 8 h
- TGI (COLO 205 [7]): Active
- TGI (COLO 205 [13]): Active
- inhibition (P12 [15]): Dose-dependent effect
- Activity (COLO 205 [18]): Active
- TGI (P12 [20]): Active

- bioavailability [3]: 61%
- fraction unbound [5]: 0.12
- hepatocyte CLint [8]: 8.9 µL/min/1e6 cells
- fraction unbound [9]: 0.086
- hepatocyte CLint [11]: 23 µL/min/1e6 cells
- clearance [12]: 18 mL/min/kg
- hepatocyte CLint [14]: 9.6 µL/min/1e6 cells
- Vd [16]: 1.3 L/kg
- logD [1]: 3.1
- solubility thermodynamic at 24 h [2]: 4 µM (≈ 1.86 µg/mL)
SMILES: CC(=O)N1CCC(n2nc(C)c(Nc3ncc(Cl)c(-c4cnn5ccccc45)n3)c2C)CC1

- logD [1]: 1.4
- solubility thermodynamic at 24 h [2]: > 1000 µM
SMILES: CNCC(=O)N1CCC(n2nc(C)c(Nc3ncc(Cl)c(-c4cnn5ccccc45)n3)c2C)CC1

- logD [1]: 2.9
- solubility thermodynamic at 24 h [2]: 510 µM (≈ 259 µg/mL)
SMILES: Cc1nn(C2CCN(CC(=O)N(C)C)CC2)c(C)c1Nc1ncc(Cl)c(-c2cnn3ccccc23)n1

- bioavailability [3]: 81%
- fraction unbound [5]: 0.12
- bioavailability [6]: 6%
- hepatocyte CLint [8]: < 3 µL/min/1e6 cells
- fraction unbound [9]: 0.091
- Vd [10]: 1.6 L/kg
- hepatocyte CLint [11]: 12 µL/min/1e6 cells
- clearance [12]: 8 mL/min/kg
- hepatocyte CLint [14]: 6.4 µL/min/1e6 cells
- Vd [16]: 1.2 L/kg
- clearance [19]: 5 mL/min/kg
- logD [1]: 2.6
- solubility thermodynamic at 24 h [2]: 2 µM (≈ 0.962 µg/mL)
SMILES: Cc1nn(C2CCN(C(=O)CO)CC2)c(C)c1Nc1ncc(Cl)c(-c2cnn3ccccc23)n1
